In ChEMBL document CHEMBL1127248, “Novel water-solutle (7-(acylhydrazono)-formyl camptothecins as potent inhibitors of DNA topoisomerase I” (Bioorg Med Chem Lett, 1994):
Values after ≈ are worked out from the molar mass of the structure shown.

Columns and labels:
[1] = biological target: T1, DNA topoisomerase 1 (Homo sapiens) (UniProt P11387); test: Compound was tested for the inhibition of Topoisomerase I when administered at a dose of 25 ug/mL
T1 sequence (whole entry): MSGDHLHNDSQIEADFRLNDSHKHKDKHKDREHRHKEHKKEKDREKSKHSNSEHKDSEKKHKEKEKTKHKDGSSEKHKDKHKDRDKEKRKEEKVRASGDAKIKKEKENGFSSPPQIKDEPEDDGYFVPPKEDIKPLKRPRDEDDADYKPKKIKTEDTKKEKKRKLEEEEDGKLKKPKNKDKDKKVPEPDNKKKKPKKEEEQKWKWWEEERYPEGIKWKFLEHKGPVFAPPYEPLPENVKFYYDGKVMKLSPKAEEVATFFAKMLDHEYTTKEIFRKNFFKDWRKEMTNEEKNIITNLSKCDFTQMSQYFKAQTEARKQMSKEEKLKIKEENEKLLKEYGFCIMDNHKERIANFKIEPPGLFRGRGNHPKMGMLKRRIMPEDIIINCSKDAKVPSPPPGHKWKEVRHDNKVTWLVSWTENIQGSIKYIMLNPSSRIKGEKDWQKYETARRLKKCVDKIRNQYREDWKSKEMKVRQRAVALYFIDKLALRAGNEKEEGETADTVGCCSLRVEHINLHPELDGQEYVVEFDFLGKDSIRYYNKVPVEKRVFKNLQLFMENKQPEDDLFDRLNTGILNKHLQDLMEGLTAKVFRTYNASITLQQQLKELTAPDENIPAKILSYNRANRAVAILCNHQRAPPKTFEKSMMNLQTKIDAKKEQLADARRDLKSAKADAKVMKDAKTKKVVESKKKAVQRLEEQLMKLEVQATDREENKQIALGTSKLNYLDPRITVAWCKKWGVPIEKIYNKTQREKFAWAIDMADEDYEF

HepG2 = test: Cytotoxicity in HepG2-T14 cancer cell line; assay type: functional, cell-based; settings: Homo sapiens
MCF7 = test: Cytotoxicity in MCF-7 cancer cell line; assay type: functional, cell-based; settings: Homo sapiens
[2] = Compound was tested for the production of cellular protein-linked DNA breaks when administered at a dose of 25 ug/mL; assay type: functional
KB [3] = test: Cytotoxicity in KB cancer cell line; assay type: functional, cell-based; settings: Homo sapiens
KB VCR R = test: Cytotoxicity in KB VCR R cancer cell line; assay type: functional, cell-based; settings: Homo sapiens
SW480 = test: Cytotoxicity in SW480 cancer cell line; assay type: functional, cell-based; settings: Homo sapiens
KB [4] = test: Cytotoxicity in KB VP-16 R cancer cell line; assay type: functional, cell-based; settings: Homo sapiens

| Compound | Topoisomerase I inhibition relative to reference (%) [1] [%] | IC50 (HepG2) [µg/mL] | IC50 (MCF7) [µg/mL] | Activity [2] [%] | IC50 (KB [3]) [µg/mL] | IC50 (KB VCR R) [µg/mL] | IC50 (SW480) [µg/mL] | IC50 (KB [4]) [µg/mL] |
| --- | --- | --- | --- | --- | --- | --- | --- | --- |
| CC[C@@]1(O)C(=O)OCc2c1cc1n(c2=O)Cc2c-1nc1ccccc1c2/C=N/NC(=O)CN.Cl | 116 | 0.6 | 0.4 | 110.3 | 0.1 | 1 | 0.1 | 3 |
| CC[C@@]1(O)C(=O)OCc2c1cc1n(c2=O)Cc2c-1nc1ccccc1c2/C=N/NC(=O)C(C)N.Cl (stereo partly specified) | 98 | 2.5 | 1 | 93.7 | 0.1 | 3 | 0.6 | 5 |
| CC[C@@]1(O)C(=O)OCc2c1cc1n(c2=O)Cc2c-1nc1ccccc1c2/C=N/NC(=O)C(N)Cc1ccc(O)cc1.Cl (stereo partly specified) | – | 1 | 5 | 181 | 0.1 | 1 | 0.4 | 5 |
| CC[C@@]1(O)C(=O)OCc2c1cc1n(c2=O)Cc2cc3ccccc3nc2-1 [CAMPTOTHECIN] | – | 0.09 (≈ 0.258 µM) | 0.02 (≈ 0.0574 µM) | 100 | 0.01 (≈ 0.0287 µM) | 0.03 (≈ 0.0861 µM) | 0.01 (≈ 0.0287 µM) | 0.04 (≈ 0.115 µM) |
| CC[C@@]1(O)C(=O)OCc2c1cc1n(c2=O)Cc2c-1nc1ccccc1c2/C=N/NC(=O)C(N)CCSC.Cl (stereo partly specified) | – | 2 | 1 | 111 | 0.1 | 0.2 | 0.8 | 0.5 |
| CC[C@@]1(O)C(=O)OCc2c1cc1n(c2=O)Cc2c-1nc1ccccc1c2/C=N/NC(=O)C(N)CC(C)C.Cl (stereo partly specified) | 136 | 0.4 | 0.15 | 111.7 | 0.1 | 0.4 | 0.04 | 1 |
| CC[C@@]1(O)C(=O)OCc2c1cc1n(c2=O)Cc2c-1nc1ccccc1c2/C=N/NC(=O)C1CCCN1.Cl (stereo partly specified) | 100 | 1.25 | 0.8 | 154.6 | 0.04 | 5 | 0.7 | 0.6 |
| CC[C@@]1(O)C(=O)OCc2c1cc1n(c2=O)Cc2c-1nc1ccccc1c2/C=N/NC(=O)C(N)CO.Cl (stereo partly specified) | 145 | 3.5 | 1 | 79.8 | 0.12 | 3 | 1 | 5 |
